ChEMBL document CHEMBL4346757, “Synthesis and biological evaluation of 7-methoxy-1-(3,4,5-trimethoxyphenyl)-4,5-dihydro-2H-benzo[e]indazoles as new colchicine site inhibitors” (Bioorg Med Chem Lett, 2019)

Assays:
[1] = test system: OVCAR-3; test: Growth inhibition of human OVCAR3 cells assessed as cell growth at 0.1 uM after 48 hrs by SRB assay relative to control; type: functional; conditions: OVCAR-3, 48 h, read-out: Activity
[2] = test system: NCI/ADR-RES; test: Growth inhibition of human NCI-ADR-RES cells assessed as cell growth at 10 uM after 48 hrs by SRB assay relative to control; type: functional; conditions: read-out: Activity
[3] = test system: SNB-75; test: Growth inhibition of human SNB75 cells assessed as cell growth at 10 uM after 48 hrs by SRB assay relative to control; type: functional; conditions: SNB-75, 48 h, read-out: Activity
[4] = test system: NCI-H522; test: Growth inhibition of human NCI-H522 cells assessed as cell growth at 10 uM after 48 hrs by SRB assay relative to control; type: functional; conditions: NCI-H522, 48 h, read-out: Activity
[5] = test system: SNB-19; test: Growth inhibition of human SNB19 cells assessed as cell growth at 10 uM after 48 hrs by SRB assay relative to control; type: functional; conditions: SNB-19, 48 h, read-out: Activity
[6] = test system: OVCAR-5; test: Growth inhibition of human OVCAR5 cells assessed as cell growth at 10 uM after 48 hrs by SRB assay relative to control; type: functional; conditions: OVCAR-5, 48 h, read-out: Activity
[7] = test system: NCI-H23; test: Growth inhibition of human NCI-H23 cells assessed as cell growth at 100 uM after 48 hrs by SRB assay relative to control; type: functional; conditions: NCI-H23, 48 h, read-out: Activity
[8] = test system: OVCAR-8; test: Growth inhibition of human OVCAR8 cells assessed as cell growth at 10 uM after 48 hrs by SRB assay relative to control; type: functional; conditions: OVCAR-8, 48 h, read-out: Activity
[9] = test system: M14; test: Growth inhibition of human M14 cells assessed as cell growth at 1 uM after 48 hrs by SRB assay relative to control; type: functional; conditions: M14, 48 h, read-out: Activity
[10] = test system: U-251; test: Growth inhibition of human U251 cells assessed as cell growth at 1 uM after 48 hrs by SRB assay relative to control; type: functional; conditions: U-251, 48 h, read-out: Activity
[11] = test system: OVCAR-3; test: Growth inhibition of human OVCAR3 cells assessed as cell growth at 10 uM after 48 hrs by SRB assay relative to control; type: functional; conditions: OVCAR-3, 48 h, read-out: Activity
[12] = test system: U-251; test: Growth inhibition of human U251 cells assessed as cell growth at 100 uM after 48 hrs by SRB assay relative to control; type: functional; conditions: U-251, 48 h, read-out: Activity
[13] = test system: OVCAR-5; test: Growth inhibition of human OVCAR5 cells assessed as cell growth at 100 uM after 48 hrs by SRB assay relative to control; type: functional; conditions: OVCAR-5, 48 h, read-out: Activity
[14] = test system: NCI-H23; test: Growth inhibition of human NCI-H23 cells assessed as cell growth at 1 uM after 48 hrs by SRB assay relative to control; type: functional; conditions: NCI-H23, 48 h, read-out: Activity
[15] = test system: RXF 393; test: Growth inhibition of human RXF393 cells assessed as cell growth at 0.1 uM after 48 hrs by SRB assay relative to control; type: functional; conditions: RXF 393, 48 h, read-out: Activity
[16] = test system: OVCAR-5; test: Growth inhibition of human OVCAR5 cells assessed as cell growth at 1 uM after 48 hrs by SRB assay relative to control; type: functional; conditions: OVCAR-5, 48 h, read-out: Activity
[17] = test system: SNB-75; test: Growth inhibition of human SNB75 cells assessed as cell growth at 0.01 uM after 48 hrs by SRB assay relative to control; type: functional; conditions: SNB-75, 48 h, read-out: Activity
[18] = test system: Malme-3M; test: Growth inhibition of human MALME-3M cells assessed as cell growth at 10 uM after 48 hrs by SRB assay relative to control; type: functional; conditions: read-out: Activity
[19] = test system: OVCAR-3; test: Growth inhibition of human OVCAR3 cells assessed as cell growth at 100 uM after 48 hrs by SRB assay relative to control; type: functional; conditions: OVCAR-3, 48 h, read-out: Activity
[20] = test system: M14; test: Growth inhibition of human M14 cells assessed as cell growth at 100 uM after 48 hrs by SRB assay relative to control; type: functional; conditions: M14, 48 h, read-out: Activity
[21] = test system: OVCAR-8; test: Growth inhibition of human OVCAR8 cells assessed as cell growth at 0.01 uM after 48 hrs by SRB assay relative to control; type: functional; conditions: OVCAR-8, 48 h, read-out: Activity
[22] = test system: DU-145; test: Growth inhibition of human DU145 cells assessed as cell growth at 0.1 uM after 48 hrs by SRB assay relative to control; type: functional; conditions: DU-145, 48 h, read-out: Activity
[23] = test system: A549; test: Growth inhibition of human A549/ATCC cells assessed as cell growth at 100 uM after 48 hrs by SRB assay relative to control; type: functional; conditions: A549, 48 h, read-out: Activity
[24] = test system: MOLT-4; test: Growth inhibition of human MOLT4 cells assessed as cell growth at 1 uM after 48 hrs by SRB assay relative to control; type: functional; conditions: MOLT-4, 48 h, read-out: Activity
[25] = test system: SNB-19; test: Growth inhibition of human SNB19 cells assessed as cell growth at 0.1 uM after 48 hrs by SRB assay relative to control; type: functional; conditions: SNB-19, 48 h, read-out: Activity
[26] = test system: SNB-75; test: Cytotoxicity against human SNB75 cells assessed as growth inhibition after 48 hrs by SRB assay; type: functional; conditions: SNB-75, 48 h
[27] = test system: KM12; test: Growth inhibition of human KM12 cells assessed as cell growth at 100 uM after 48 hrs by SRB assay relative to control; type: functional; conditions: KM12, 48 h, read-out: Activity
[28] = test system: HCT-15; test: Growth inhibition of human HCT15 cells assessed as cell growth at 0.01 uM after 48 hrs by SRB assay relative to control; type: functional; conditions: HCT-15, 48 h, read-out: Activity
[29] = test system: BT-549; test: Growth inhibition of human BT549 cells assessed as cell growth at 0.1 uM after 48 hrs by SRB assay relative to control; type: functional; conditions: BT-549, 48 h, read-out: Activity
[30] = test system: 786-0; test: Growth inhibition of human 786-0 cells assessed as cell growth at 1 uM after 48 hrs by SRB assay relative to control; type: functional; conditions: 786-0, 48 h, read-out: Activity
[31] = test system: K562; test: Growth inhibition of human K562 cells assessed as cell growth at 0.01 uM after 48 hrs by SRB assay relative to control; type: functional; conditions: K562, 48 h, read-out: Activity
[32] = test system: Hs-578T; test: Growth inhibition of human Hs 578T cells assessed as cell growth at 1 uM after 48 hrs by SRB assay relative to control; type: functional; conditions: read-out: Activity
[33] = test system: NCI-H522; test: Growth inhibition of human NCI-H522 cells assessed as cell growth at 100 uM after 48 hrs by SRB assay relative to control; type: functional; conditions: NCI-H522, 48 h, read-out: Activity
[34] = test system: MDA-MB-435; test: Growth inhibition of human MDA-MB-435 cells assessed as cell growth at 0.1 uM after 48 hrs by SRB assay relative to control; type: functional; conditions: MDA-MB-435, 48 h, read-out: Activity
[35] = test system: COLO 205; test: Antiproliferative activity against human COLO205 cells assessed as reduction in cell viability by MTT assay; type: functional, cell-based
[36] = test system: PC-3; test: Growth inhibition of human PC3 cells assessed as cell growth at 10 uM after 48 hrs by SRB assay relative to control; type: functional; conditions: PC-3, 48 h, read-out: Activity

`COc1ccc2c(c1)CCc1n[nH]c(-c3cc(OC)c(OC)c(OC)c3)c1-2` was tested, and the growth at 0.1 µM [1] was 12%, the growth at 10 µM [2] was -11% and the growth at 10 µM [3] was 22%. For the same compound, the growth at 10 µM [4] was -17%, the growth at 10 µM [5] was 24% and the growth at 10 µM [6] was 31%. The growth at 100 µM [7] was -42%, the growth at 10 µM [8] was 9% and the growth at 1 µM [9] was 4%. It also gave a growth at 1 µM [10] of 8%, a growth at 10 µM [11] of 12% and a growth at 100 µM [12] of -72%. The growth at 100 µM [13] was -22%, the growth at 1 µM [14] was 7% and the growth at 0.1 µM [15] was -2%. The growth at 1 µM [16] was 43%, the growth at 0.01 µM [17] was 12% and the growth at 10 µM [18] was 41%. It also gave a growth at 100 µM [19] of -59%, a growth at 100 µM [20] of -66% and a growth at 0.01 µM [21] of 15%. For the same compound, the growth at 0.1 µM [22] was 10%, the growth at 100 µM [23] was -26% and the growth at 1 µM [24] was 36%. For the same compound, the growth at 0.1 µM [25] was 33%, the GI50 ([26]; read-out: GI50) was less than 0.01 µM and the CC50 ([26]; read-out: LC50 (the source's name)) was greater than 100 µM. For the same compound, the TGI ([26]; read-out: TGI) was 26.1 µM, the GI50 ([26]; read-out: pGI50 (converted)) was less than 0.01 µM and the CC50 ([26]; read-out: pLC50 (the source's name) (converted)) was greater than 100 µM. It also gave a TGI ([26]; read-out: pTGI (converted)) of 26.3 µM, a growth at 100 µM [27] of -78% and a growth at 0.01 µM [28] of 6%. It also gave a growth at 0.1 µM [29] of 1%, a growth at 1 µM [30] of 14% and a growth at 0.01 µM [31] of 19%. The growth at 1 µM [32] was 18%, the growth at 100 µM [33] was -66% and the growth at 0.1 µM [34] was -39%. It also gave an IC50 [35] of 0.007 µM and a growth at 10 µM [36] of 14%.
